Experimental data taken from patent US6413974B1, “6,9,-disubstituted 2-[trans-(4-aminocyclohexyl) amino] purines” (Aventis Pharmaceuticals Inc., priority 1998, dated 2002).
“And” between values parts separate entries of the source, which are not always exact repeats. Equal values may be shown once. Where a name gives a salt, the structure may show the parent alone. Read-outs that look alike come from different tables or passages of the source.

How the values were obtained:
[1] = system: p34^cdc2-cyclin B kinases; details: Havlicek et al. 1997; cited from earlier work
[2] = system: DMS-114; assay: In vitro tumor cell proliferation, DMS-114; format: cell-based, human; details: read-out: In vitro Tumor Cell Proliferation (IC50, μM) Lung DMS-114
Summary of the method: (§1)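 SRB read-out: 3-day drug exposure, medium and drug renewed, 4 further days, TCA fixation at 4° C, 0.4% SRB stain. CyQUANT alternative: 3-day drug exposure, then plates frozen at −80° C ≥30 min. Cells plated overnight at 37° C before dosing.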

[3] = target: T1, cdk4/cyclin D1 (Homo sapiens, UniProt P11802); assay: Cyclin-dependent kinase 4 Assay; format: biochemical; details: cdk4/cyclin D1, GST-Rb substrate, 10 μM ATP, 30 min at 37° C.; read-out: CDK4 Inhibition IC50
T1 construct: made in house; host or cells: Sf9 insect cells (Bac-to-Bac baculovirus, pFastBac)
Summary of the method: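 Insect-cell lysate of coexpressed human cdk4/cyclin D1 (0.1 μg) phosphorylated bead-bound GST-Rb (0.5 μg) in 50 mM HEPES pH 7.5, 10 mM MgCl2, 1 mM EGTA for 30 min at 37 °C. Filters were washed with TNEN and scintillation-counted; IC50 values derived.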

[4] = system: MDA-MB-231; assay: In vitro tumor cell proliferation, MDA-MB-231; format: cell-based, human; details: read-out: In vitro Tumor Cell Proliferation (IC50, μM) Breast MDA-MB-231
Summary of the method: as §1

[5] = system: HT-29; assay: In vitro tumor cell proliferation, HT-29; format: cell-based, human; details: read-out: In vitro Tumor Cell Proliferation (IC50, μM) Colon HT-29 (converted)
Summary of the method: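 HT-29 human colon adenocarcinoma cells plated overnight at 37° C., then exposed to drug for 3 days, medium with fresh drug replaced for a further 4 days. Cells fixed with 10% TCA and stained with 0.4% sulforhodamine B; alternatively, CyQUANT read after 3 days of drug exposure.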

[6] = target: T2, cdk2/cyclin E (Homo sapiens, UniProt P24941); assay: Cyclin-Dependent Kinase 2 Assay (cdk-2 inhibition); format: biochemical; details: GST-Rb substrate, 30 min at 30° C.
T2 construct: made in house; host or cells: insect cells (baculovirus co-infection)
Summary of the method: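 GST-Rb bound to glutathione-Sepharose beads (0.5 μg/well) as substrate in 50 mM HEPES pH 7.5, 10 mM MgCl2, 1 mM EGTA. Recombinant cdk2/cyclin E at 0.1 μg per 100 μl, 30 min at 30 °C. Reaction stopped by filtration, TNEN washes, scintillation counting.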

[7] = system: MCF-7; assay: In vitro tumor cell proliferation, MCF-7; format: cell-based, human; details: read-out: In vitro Tumor Cell Proliferation (IC50, μM) Breast MCF-7
Protocol: (§2) The proliferation of tumor cells was measured using a sulforhodamine B assay as described in Skehan, P., et al., J. Natl. Cancer Inst. […] Tumor cells were harvested with trypsin-EDTA, cells that excluded trypan blue were counted, added to 96-well plates and incubated overnight at 37° C. Drug was added to the wells following dilution in culture medium. Three days later, the medium was removed and replenished with medium containing fresh drug and incubated an additional 4 days. The cells were then fixed with 0.1 ml 10% trichloroacetic acid for 60 min at 4° C. The plates were rinsed five times with tap water, air-dried and stained for 30 min with 0.4% sulforhodamine B in 1% acetic acid and air-dried.
(§3) Alternatively, the CyQUANT cell proliferation assay was used to quantify tumor cell proliferation. Tumor cells were harvested with trypsin-EDTA, cells that excluded trypan blue were counted, added to 96-well plates and incubated overnight at 37° C. Drug was added to the wells following dilution in culture medium. Three days later the medium was removed and the plates frozen at −80° C. for at least 30 minutes.
MCF7 is a human breast adenocarcinoma, hormone-dependent (HTB 22);

[8] = system: DU 145; assay: In vitro tumor cell proliferation, DU 145; format: cell-based, human; details: read-out: In vitro Tumor Cell Proliferation (IC50, μM) Prostate DUI45
Summary of the method: as §1

[9] = system: HCT-15; assay: In vitro tumor cell proliferation, HCT-15; format: cell-based, human; details: read-out: In vitro Tumor Cell Proliferation (IC50, μM) Colon HCT-15
Protocol: as §2, §3

[10] = system: A549; assay: In vitro tumor cell proliferation, A549; format: cell-based, human; details: read-out: In vitro Tumor Cell Proliferation (IC50, μM) Lung A549
Summary of the method: as §1

[11] = system: PC-3; assay: In vitro tumor cell proliferation, PC-3; format: cell-based, human; details: read-out: In vitro Tumor Cell Proliferation (IC50, μM) Prostate PC-3
Summary of the method: as §1

[12] = system: cortical neurons; details: cited from earlier work
[13] = system: neuronal PC12 cells and sympathetic neurons; details: cited from earlier work
[14] = system: PC12 cells, or rat sympathetic neurons; details: cited from earlier work
[15] = system: proliferating PC12 cells; details: cited from earlier work
[16] = Homo sapiens, DMS-114, values without *
[17] = values without *, trihydrochloride
[18] = Homo sapiens, MDA-MB-231, values without *
[19] = Homo sapiens, HT-29, values without *
[20] = Homo sapiens, MCF7, values without *
[21] = Homo sapiens, DU-145, values without *
[22] = Homo sapiens, HCT-15, values without *
[23] = Homo sapiens, A549, values without *
[24] = Homo sapiens, PC-3, values without *
[25] = values without *, dihydrochloride

T1 sequence (P11802 whole entry): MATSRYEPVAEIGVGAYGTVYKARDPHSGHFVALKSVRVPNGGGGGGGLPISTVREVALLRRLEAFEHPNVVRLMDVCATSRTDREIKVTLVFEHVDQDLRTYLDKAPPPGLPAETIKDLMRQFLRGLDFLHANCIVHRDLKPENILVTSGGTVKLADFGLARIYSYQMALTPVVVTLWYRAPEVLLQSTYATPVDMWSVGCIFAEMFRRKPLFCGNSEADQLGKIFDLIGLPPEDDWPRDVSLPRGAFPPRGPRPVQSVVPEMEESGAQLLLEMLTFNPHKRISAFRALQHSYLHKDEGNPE
T1 sequence (P24385 whole entry partner): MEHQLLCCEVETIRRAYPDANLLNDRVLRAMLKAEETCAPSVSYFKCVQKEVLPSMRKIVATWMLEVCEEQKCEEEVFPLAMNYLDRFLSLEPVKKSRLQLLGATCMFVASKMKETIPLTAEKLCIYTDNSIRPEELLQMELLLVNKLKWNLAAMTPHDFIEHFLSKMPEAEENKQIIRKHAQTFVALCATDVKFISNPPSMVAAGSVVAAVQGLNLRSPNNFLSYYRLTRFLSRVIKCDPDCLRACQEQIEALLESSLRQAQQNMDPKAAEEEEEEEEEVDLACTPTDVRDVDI

Row | SMILES | IC50 [2, 16] [µM] | IC50 [3] [nM] | IC50 [4, 18] [µM] | IC50 [5, 19] [µM] | IC50 [6] | IC50 [7, 20] [µM] | IC50 [8, 21] [µM] | IC50 [9, 22] [µM] | IC50 [10, 23] [µM] | IC50 [11, 24] [µM] | further results
1 | CC[C@@H](CO)Nc1nc(NCc2ccccc2)c2ncn(C(C)C)c2n1 (single isomer, unassigned) [(S) enantiomer] |  |  |  |  |  |  |  |  |  |  | IC50 [1]: 800 nM
2 | N[C@H]1CC[C@H](Nc2nc(NCCCn3ccnc3)c3ncn(C4CCCC4)c3n2)CC1 [Example 46, 2-[Trans-(4-aminocyclohexyl)amino]-6-[3-(1-imidazolyl)propylamino]-9-cyclopentylpurine dihydrochloride] | 5.4 | 450 | 5.2 | 6.2 | 20 nM and 17 nM and 21 nM | 3.5 | 5.1 |  | 6 | 2 | IC50 [2, 25]: 7.4 µM; IC50 [4, 25]: 7 µM; IC50 [5, 25]: 9.7 µM; IC50 [7, 25]: 4.9 µM; IC50 [8, 25]: 6 µM; IC50 [9, 25]: 16 µM; IC50 [10, 25]: 6.7 µM; IC50 [11, 25]: 3 µM
3 | Cn1cnc2nc(NCCO)nc(NCc3ccccc3)c21 [iso-olomoucine] |  |  |  |  |  |  |  |  |  |  | prevention of cell death of camptothecin-treated neuronal cells ([12]; cortical neurons): failed to prevent the cell death; prevention of cell death of camptothecin-treated neuronal cells ([14]; PC12 cells / sympathetic neurons): failed to prevent the cell death

Now from value to compound, other results behind:

Row | IC50 [2, 16] [µM] | IC50 [3] [nM] | IC50 [4, 18] [µM] | IC50 [5, 19] [µM] | IC50 [6] | IC50 [7, 20] [µM] | IC50 [8, 21] [µM] | IC50 [9, 22] [µM] | IC50 [10, 23] [µM] | IC50 [11, 24] [µM] | SMILES | further results
4 | 2.1 | 12000 | 4 | 4.8 | 180 nM | 1.6 | 2.5 | 16 | 2 | 2.4 | CC(C)n1cnc2c(NCc3ccccc3)nc(N[C@H]3CC[C@H](N)CC3)nc21 [Example 45, 2-[Trans-(4-aminocyclohexyl)amino]-6-(benzylamino)-9-(2-propyl)purine trihydrochloride] | IC50 [2, 17]: 1.6 µM; IC50 [4, 17]: 3 µM; IC50 [5, 17]: 3.5 µM; IC50 [7, 17]: 1.7 µM; IC50 [8, 17]: 1.9 µM; IC50 [9, 17]: 17 µM; IC50 [10, 17]: 1.8 µM; IC50 [11, 17]: 1.4 µM
5 | 0.08 |  | 0.095 |  |  | 0.06 | 0.08 | 0.1 | 0.08 | 0.07 | CN1CC[C@H](c2c(O)cc(O)c3c(=O)cc(-c4ccccc4Cl)oc23)[C@H](O)C1 [Flavoipiridol, reference compound] | IC50 ([12]; Park et al. 1997, read-out: IC50, protection against camptothecin-induced cortical neuronal death): 100 nM; apoptosis of post-mitotic differentiated or sympathetic neurons ([13]; following withdrawal of NGF): prevented apoptosis; death of neuronal PC12 cells and sympathetic neurons ([13]; two model systems of neuronal survival, Park et al. 1996): suppress the death; cell death at day 6 ([14]; both or individual olomoucine or flavopiridol, in the presence or absence of camptothecin): approximately 30%; concentration giving maximal protection from death ([14]; camptothecin-treated PC12 cells or rat sympathetic neurons): 1 µM; minimum concentration that fully inhibits DNA synthesis [15]: 1 µM
